We go through 20 compounds from patent US20250326769A1, “HETEROAROMATIC MACROCYCLIC ETHER CHEMOTHERAPEUTIC AGENTS” (Nuvalent, Inc., priority 2022, published 2025).

Where only a bound is given, the exact number is not on record here.

Assay [1] concerns the target Ba/F3 EML4-ALK v1 I1171N/D1203N (Homo sapiens (Human), UniProt Q9HC35+Q9UM73, D1203N/I1171N). Description: Ba/F3 cell proliferation assay, EML4-ALK v1 I1171N/D1203N. The assay is classed as cell-based. Particulars: for IC50: Ba/F3 stable cells, 72 hours, CellTiter-Glo; for Selectivity for Ba/F3 EML4-ALK v1 I1171N-D1203N IC50 over Ba/F3 ETV6-TRKB IC50 / ETV6-TRKB / EML4-ALK v1 I1171N/D1203N: ratio of Ba/F3 IC50 values, TRKB selectivity; for Selectivity for Ba/F3 EML4-ALK v1 I1171N-D1203N IC50 over Ba/F3 ETV6-TRKB IC50: Table 6 bins. The text has this:
(§1) Genes encoding EML4-ALK v1 (variant 1), EML4-ALK v1 G1202R, EML4-ALK v1 I1171IN, EML4-ALK v1 D1203N, EML4-ALK v1 I1171N/D1203N, and ETV6-TRKB were synthesized at GeneRay, cloned into the retroviral construct pMSCV-puro (Biovector), and packaged into retroviral particles. The virus was used to infect Ba/F3 cells (RIKEN) at multiplicity of infection=1 for 1 day. Infected cells were rescued in media (RPMI-1640 with 10% fetal bovine serum and 1% streptomycin and penicillin) supplemented with mouse IL-3 (10 ng/mL) for 2 days, and stable cell lines were selected by IL-3 withdrawal and puromycin (0.8 μg/mL) for 7 days. Monoclones were selected by single-cell dilution in IL-3-free medium containing puromycin (0.8 μg/mL). Transformation of desired genes was confirmed by Sanger sequencing and western blot using the following antibodies: ALK (CST #3633) and pan-TRK (Abcam #76291).
(§2) Stable cells were plated in a 384-well plate. Test compounds were then added in a 3-fold dilution series and incubated for 72 hours. CellTiter-Glo reagent (Promega) was added. Luminescence was measured on a plate reader. Half-maximal inhibitory concentration (ICso) was calculated from percent inhibition and inhibitor concentration using four-parameter logistic regression. Compound potency can be interpreted by binning IC50 values: bin A for high potency, 0.1 nM IC50<50 nM; bin B for medium potency, 50 nM<IC50<500 nM; and bin C for low potency, IC50>500 nM. […] Exemplary data is given in Table 4 (nd is not determined).
(§3) Ba/F3 proliferation is driven by the transduced oncogenes in the same way that cancer cell proliferation in humans is driven by the expression of equivalent oncogenes.
TRKB selectivity was calculated by dividing a compound's TRKB potency by its primary target potency (e.g., ETV6-TRKB IC50/EML4-ALK v1 IC50). Compound selectivity can be interpreted by binning ratio values: bin A for very high selectivity, ratio≥30-fold; bin B for high selectivity, ratio≥10-fold but<30; bin C for moderate selectivity, ratio≥1 but<10; and bin D for low selectivity, ratio<1. […] (nd=not determined).
Additional exemplified compounds were also tested against ALK-INDN and TRKB. The TRKB selectivity was calculated by dividing a compound's TRKB potency by its primary target potency (e.g., ETV6-TRKB IC50/EMIL4-ALK I1171N-D1203N v1 IC50). Compound selectivity can be interpreted by binning ratio values: bin AA for the selectivity with the ratio≥30-fold; bin BB for the selectivity with the ratio≥10-fold but<30; bin CC for the selectivity with the ratio≥5 but<10; bin DD for the selectivity with the ratio≥1 but<5; and bin EE for the selectivity with the ratio<1.
Background: In ATP-based viability assays light output follows the ATP content of the culture.

The target in another assay is Ba/F3 ETV6-TRKB (Homo sapiens, UniProt Q16620). Description: Ba/F3 cell proliferation assay, ETV6-TRKB. The settings on record: Ba/F3 stable cells, 72 hours, CellTiter-Glo; read-out: ETV6-TRKB IC50. Type of assay: cell-based.
Excerpt: as §1, §2, §3

Ba/F3 ETV6-TRKB, sequence (Q16620 32-822 limits assumed, change not shown): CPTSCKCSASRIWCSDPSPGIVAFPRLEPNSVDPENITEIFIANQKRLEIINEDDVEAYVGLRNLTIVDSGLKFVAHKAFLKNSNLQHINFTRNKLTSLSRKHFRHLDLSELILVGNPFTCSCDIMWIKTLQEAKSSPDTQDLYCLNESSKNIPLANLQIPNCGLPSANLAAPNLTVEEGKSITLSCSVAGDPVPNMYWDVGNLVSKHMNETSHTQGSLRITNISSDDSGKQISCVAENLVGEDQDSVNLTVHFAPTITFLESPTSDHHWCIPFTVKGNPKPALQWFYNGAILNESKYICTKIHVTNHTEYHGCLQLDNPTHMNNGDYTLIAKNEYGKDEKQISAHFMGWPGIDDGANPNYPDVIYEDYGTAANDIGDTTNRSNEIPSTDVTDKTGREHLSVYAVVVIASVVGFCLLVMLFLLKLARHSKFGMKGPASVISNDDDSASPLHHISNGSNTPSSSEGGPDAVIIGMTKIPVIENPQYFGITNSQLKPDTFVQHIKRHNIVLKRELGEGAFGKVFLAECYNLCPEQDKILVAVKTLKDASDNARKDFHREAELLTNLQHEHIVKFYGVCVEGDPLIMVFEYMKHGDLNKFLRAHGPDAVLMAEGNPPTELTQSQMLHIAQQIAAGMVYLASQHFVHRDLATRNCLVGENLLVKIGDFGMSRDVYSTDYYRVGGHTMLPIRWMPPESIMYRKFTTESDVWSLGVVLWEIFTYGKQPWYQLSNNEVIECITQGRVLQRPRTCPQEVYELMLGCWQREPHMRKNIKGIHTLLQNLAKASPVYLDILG
Ba/F3 EML4-ALK v1 I1171N/D1203N, sequence (Q9UM73 other isoform, or with tags, fused parts or gaps I1171N/D1203N): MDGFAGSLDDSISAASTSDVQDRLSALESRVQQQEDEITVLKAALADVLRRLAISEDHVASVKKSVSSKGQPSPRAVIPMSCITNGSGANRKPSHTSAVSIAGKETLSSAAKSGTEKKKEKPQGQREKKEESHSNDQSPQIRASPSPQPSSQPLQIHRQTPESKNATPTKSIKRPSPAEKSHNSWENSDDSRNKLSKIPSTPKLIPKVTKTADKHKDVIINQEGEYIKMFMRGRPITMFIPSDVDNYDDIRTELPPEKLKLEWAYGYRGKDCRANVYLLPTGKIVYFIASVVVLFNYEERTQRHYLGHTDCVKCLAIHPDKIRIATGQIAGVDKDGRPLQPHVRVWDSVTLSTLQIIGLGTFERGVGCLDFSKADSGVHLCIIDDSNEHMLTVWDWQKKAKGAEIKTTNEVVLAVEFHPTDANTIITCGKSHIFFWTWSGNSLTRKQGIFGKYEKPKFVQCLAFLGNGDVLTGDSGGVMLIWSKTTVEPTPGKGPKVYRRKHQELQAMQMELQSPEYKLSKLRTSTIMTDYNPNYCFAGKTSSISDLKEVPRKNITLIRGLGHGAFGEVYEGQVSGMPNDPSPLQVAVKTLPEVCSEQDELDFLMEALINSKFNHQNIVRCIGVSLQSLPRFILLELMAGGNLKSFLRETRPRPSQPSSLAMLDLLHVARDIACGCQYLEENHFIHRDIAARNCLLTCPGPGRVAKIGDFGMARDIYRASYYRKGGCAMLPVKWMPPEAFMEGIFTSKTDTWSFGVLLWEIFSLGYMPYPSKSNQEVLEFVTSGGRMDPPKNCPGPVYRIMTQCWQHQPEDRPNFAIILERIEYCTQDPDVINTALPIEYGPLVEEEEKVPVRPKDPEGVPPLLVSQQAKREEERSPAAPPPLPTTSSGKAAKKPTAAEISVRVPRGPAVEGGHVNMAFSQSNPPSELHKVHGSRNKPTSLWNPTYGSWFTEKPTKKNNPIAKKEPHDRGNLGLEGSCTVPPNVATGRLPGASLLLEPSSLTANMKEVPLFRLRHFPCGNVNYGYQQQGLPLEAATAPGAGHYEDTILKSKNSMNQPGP

`Cc1cc2n(n1)-c1ccc(F)cc1[C@@H](C)Oc1cc(cnc1N)-c1c(c(C(=O)N(C)C)nn1C1CCC1)C2` [Example 67, N,N-dimethyl-(R)-22-amino-3-cyclobutyl-16-fluoro-10,19-dimethyl-20-oxa-3,4,11,12,23-pentaazapentacyclo[19.3.1.0^2,^6.0^8,^12.0^13,^18]pentacosa-1(24),2(6),4,8,10,13,15,17,21(25),22-decaene-5-carboxamide]: the results for the IC50 (in assay [1]; on Ba/F3 ETV6-TRKB) were 0.1 to 50 nM and 50 to 500 nM, respectively.

Turning to `CCn1ncc2c1-c1cnc(N)c(c1)O[C@H](C)c1cc(F)ccc1-c1nn(C)cc1C2` [Example E4, reference compound], in assay [1], the “Selectivity for Ba/F3 EML4-ALK v1 I1171N-D1203N IC50 over Ba/F3 ETV6-TRKB IC50” value (“Selectivity” below) is on record as “EE (bin EE for the selectivity with the ratio<1)”.

As for “(7S,20R)-23-amino-17-fluoro-7-hydroxy-4-methyl-20-methyl-21-oxa-4,5,12,24-tetraazapentacyclo[20.3.1.0^2,6.0^8,13.0^14,19]hexacosa-1(25),2,5,8(13),9,11,14,16,18,22(26),23-undecaene-3-carbonitrile [Example 78]”, in assay [1], the IC50 (as a rule, the midpoint of a concentration-inhibition curve) fell in the range of 50 to 500 nM and the “ETV6-TRKB / EML4-ALK v1 I1171N/D1203N” value was “B (bin B for high selectivity, ratio≥10-fold but<30)”. The IC50 on Ba/F3 ETV6-TRKB was more than 500 nM.

Turning to `C[C@H]1Oc2cc(cnc2N)-c2c(nn(C)c2C#N)Cc2cccnc2-c2c(F)cc(F)cc21` [Example E1, reference compound], in assay [1], the “Selectivity” value was “BB (bin BB for the selectivity with the ratio≥10-fold but<30)”.

Take `C[C@H]1Oc2cc(cnc2N)-c2c(nn(C)c2C#N)Cc2cccnc2-c2ccc(F)cc21` [Example E7, reference compound]: the “Selectivity” value in assay [1] is given as “CC (bin CC for the selectivity with the ratio≥5 but<10)”.

Consider `C[C@H]1Oc2cc(cnc2N)-c2c(C#N)nn(C)c2C(=O)c2cccnc2-c2ccc(F)cc21` [Example 25, (R)-23-amino-17-fluoro-5-methyl-20-methyl-7-oxo-21-oxa-4,5,12,24-tetraazapentacyclo[20.3.1.0^2,^6.0^8,^13.0^14,^19]hexacosa-1(25),2(6),3,8(13),9,11,14,16,18,22(26),23-undecaene-3-carbonitrile], for which, in assay [1], the IC50 lay in the range of 0.1 to 50 nM; the “ETV6-TRKB / EML4-ALK v1 I1171N/D1203N” value is “A (bin A for very high selectivity, ratio≥30-fold)”; the “Selectivity” value was “AA (bin AA for the selectivity with the ratio≥30-fold)”. Also, the IC50 on Ba/F3 ETV6-TRKB is more than 500 nM.

As to `C[C@H]1Oc2cc(cnc2N)-c2c(C#N)nn(C)c2C(O)c2cn(C)nc2-c2c(F)cc(F)cc21` (stereo partly drawn) [Example 79, (19R)-22-amino-14,16-difluoro-7-hydroxy-5,10-dimethyl-19-methyl-20-oxa-4,5,10,11,23-pentaazapentacyclo[19.3.1.0^2,^6.0^8,^12.0^13,^18]pentacosa-1(24),2(6),3,8,11,13,15,17,21(25),22-decaene-3-carbonitrile], in assay [1], the IC50 is 50 to 500 nM and the “ETV6-TRKB / EML4-ALK v1 I1171N/D1203N” value is given as “C (bin C for moderate selectivity, ratio≥1 but<10)”. Moreover, the IC50 on Ba/F3 ETV6-TRKB is more than 500 nM.

Consider `Cc1nc2c(s1)C(=O)c1c(c(C#N)nn1C)-c1cnc(N)c(c1)O[C@H](C)c1cc(F)ccc1-2` [Example 74, (R)-22-amino-16-fluoro-5-methyl-10,19-dimethyl-7-oxo-20-oxa-9-thia-4,5,11,23-tetraazapentacyclo[19.3.1.0^2,^6.0^8,^12.0^13,^18]pentacosa-1(24),2(6),3,8(12),10,13,15,17,21(25),22-decaene-3-carbonitrile], for which, in assay [1], the half-inhibitory concentration (IC50) was 50 to 500 nM; the “ETV6-TRKB / EML4-ALK v1 I1171N/D1203N” value is recorded as “C (bin C for moderate selectivity, ratio≥1 but<10)”; the “Selectivity” value is reported as “CC (bin CC for the selectivity with the ratio≥5 but<10)”. On Ba/F3 ETV6-TRKB, the IC50 was more than 500 nM.

On to `CCc1nn(C(=O)N(C)C)c2c1-c1cnc(N)c(c1)O[C@H](C)c1cc(F)ccc1-c1ncccc1C2` [Example 24, (R)-5-(N,N-dimethylcarbamoyl)-3-ethyl-17-fluoro-20-methyl-21-oxa-4,5,12,24-tetraazapentacyclo[20.3.1.0^2,^6.0^8,^13.0^14,^19]hexacosa-1(25),2(6),3,8(13),9,11,14,16,18,22(26),23-undecaen-23-ylamine], for which, in assay [1], the IC50 lay within 0.1 to 50 nM and the “ETV6-TRKB / EML4-ALK v1 I1171N/D1203N” value is on record as “C (bin C for moderate selectivity, ratio≥1 but<10)”. Also, the IC50 on Ba/F3 ETV6-TRKB was 0.1 to 50 nM.

On to `CCn1nc2c(c1C#N)-c1cnc(N)c(c1)O[C@H](C)c1cc(F)ccc1-c1ncccc1C2` [Example E12, reference compound], for which, in assay [1], the “Selectivity” value is “CC (bin CC for the selectivity with the ratio≥5 but<10)”.

With `C[C@H]1Oc2cc(cnc2N)-c2c(CC3CC3)nn(C(=O)N(C)C)c2Cc2cn(C)nc2-c2c(F)cc(F)cc21` [Example 23, (19R)-22-amino-3-(cyclopropylmethyl)-14,16-difluoro-N,N,10,19-tetramethyl-20-oxa-4,5,10,11,23-pentaazapentacyclo[19.3.1.0^2,6.0^8,12.0^13,18]pentacosa-1(24),2(6),3,8,11,13,15,17,21(25),22-decaene-5-carboxamide], in assay [1], the IC50 lay in the range of 50 to 500 nM and the “ETV6-TRKB / EML4-ALK v1 I1171N/D1203N” value was “A (bin A for very high selectivity, ratio≥30-fold)”. Further, at Ba/F3 ETV6-TRKB, the IC50 is more than 500 nM.

As for `Cc1cc2n(n1)-c1c(F)cc(F)cc1[C@@H](C)Oc1cc(cnc1N)-c1c(C#N)nn(C)c1C2=O` [Example 69, (R)-22-amino-14,16-difluoro-5-methyl-10,19-dimethyl-7-oxo-20-oxa-4,5,11,12,23-pentaazapentacyclo[19.3.1.0^2,^6.0^8,^12.0^13,^18]pentacosa-1(24),2(6),3,8,10,13,15, 17,21(25),22-decaene-3-carbonitrile], in assay [1], the concentration for half-maximal inhibition (IC50) is 0.1 to 50 nM and the “ETV6-TRKB / EML4-ALK v1 I1171N/D1203N” value is given as “B (bin B for high selectivity, ratio≥10-fold but<30)”. On Ba/F3 ETV6-TRKB, the IC50 lay in the range of 50 to 500 nM.

`C[C@H]1Oc2cc(cnc2N)-c2c(C#N)nn(C)c2Cc2cccnc2-c2c(F)cc(F)cc21` [Example E2, reference compound]: the “Selectivity” value in assay [1] is given as “DD (bin DD for the selectivity with the ratio≥1 but<5)”.

For the compound `C[C@H]1Oc2cc(cnc2N)-c2c(nn(C)c2C#N)Cc2cn(C)nc2-c2c(F)cc(F)cc21` [Example E13, reference compound], in assay [1], the “Selectivity” value is reported as “BB (bin BB for the selectivity with the ratio≥10-fold but<30)”.

As for `Cc1nc2c(s1)Cc1c(c(C#N)nn1C)-c1cnc(N)c(c1)O[C@H](C)c1cc(F)ccc1-2` [Example E6, reference compound], the “Selectivity” value in assay [1] is on record as “EE (bin EE for the selectivity with the ratio<1)”.

Take `CC(C)n1nc2c(c1C#N)-c1cnc(N)c(c1)O[C@H](C)c1cc(F)ccc1-c1ncccc1C2` [Example E5, reference compound]: the “Selectivity” value in assay [1] was “CC (bin CC for the selectivity with the ratio≥5 but<10)”.

As to `CCn1ncc2c1-c1cnc(N)c(c1)O[C@H](C)c1cc(F)ccc1-c1ncccc1C2` [Example E10, reference compound], the “Selectivity” value in assay [1] is on record as “EE (bin EE for the selectivity with the ratio<1)”.

As for `C[C@H]1Oc2cc(cnc2N)-c2c(cnn2CC2CC2)Cc2cccnc2-c2ccc(F)cc21` [Example E11, reference compound], the “Selectivity” value in assay [1] is reported as “DD (bin DD for the selectivity with the ratio≥1 but<5)”.

With `Cc1cc2n(n1)-c1ccc(F)cc1[C@@H](C)Oc1cc(cnc1N)-c1c(C#N)nn(C)c1C2` [Example E3, reference compound], the “Selectivity” value in assay [1] is listed as “EE (bin EE for the selectivity with the ratio<1)”.

As for `C[C@H]1Oc2cc(cnc2N)-c2c(C#N)nn(C)c2Cc2cccnc2-c2ccc(F)cc21` [Example E8, reference compound], the “Selectivity” value in assay [1] is given as “DD (bin DD for the selectivity with the ratio≥1 but<5)”.
